Laboratory results published in ChEMBL document CHEMBL1129068, “Structure-activity relationships of the antimalarial agent artemisinin. 5. Analogs of 10-deoxoartemisinin substituted at C-3 and C-9” (J Med Chem, 1996).

Assays:
[1] = system: Plasmodium falciparum; assay: Relative in vitro activity compared to artemisinin against Plasmodium falciparum Indochina W2; type: functional
[2] = system: Plasmodium falciparum; assay: Relative in vitro activity compared to artemisinin against Plasmodium falciparum D6 (Sierra Leone); type: functional

SMILES	Relative activity [1]	Relative activity [2]
CC[C@@]12CC[C@H]3[C@H](C)CC[C@H]4CCO[C@H](O1)[C@]43OO2	10	10
CCC[C@H]1CO[C@@H]2O[C@@]3(C)CC[C@H]4[C@H](C)CC[C@@H]1[C@@]24OO3	550	473
C[C@@H]1CC[C@H]2CCO[C@@H]3O[C@@]4(CCC(=O)O)CC[C@@H]1[C@@]23OO4	0.09	0.09
CCCC[C@H]1CO[C@@H]2O[C@@]3(C)CC[C@H]4[C@H](C)CC[C@@H]1[C@@]24OO3	2090	5826
CC[C@H]1CO[C@@H]2O[C@@]3(C)CC[C@H]4[C@H](C)CC[C@@H]1[C@@]24OO3	466	914
CCCCC[C@H]1CO[C@@H]2O[C@@]3(C)CC[C@H]4[C@H](C)CC[C@@H]1[C@@]24OO3	145	170
C[C@@H]1CC[C@H]2CCO[C@@H]3O[C@@]4(CCc5ccccc5)CC[C@@H]1[C@@]23OO4	2	6
CCOC(=O)CC[C@@]12CC[C@H]3[C@H](C)CC[C@H]4CCO[C@H](O1)[C@]43OO2	506	422
CCCC[C@@]12CC[C@H]3[C@H](C)CC[C@H]4CCO[C@H](O1)[C@]43OO2	556	653
CCC[C@@]12CC[C@H]3[C@H](C)CC[C@H]4CCO[C@H](O1)[C@]43OO2	685	722
C[C@@H]1CC[C@H]2[C@@H](CCCc3ccccc3)CO[C@@H]3O[C@@]4(C)CC[C@@H]1[C@]32OO4	2506	5073
C[C@@H]1CC[C@H]2[C@@H](C)CO[C@@H]3O[C@]4(C)CC[C@@H]1[C@]32OO4 [DEOXOARTEMISININ]	567	659
C[C@@H]1CC[C@H]2[C@@H](CCCc3ccc(Cl)cc3)CO[C@@H]3O[C@@]4(C)CC[C@@H]1[C@]32OO4	3317	6991
C[C@@H]1CC[C@H]2CCO[C@@H]3O[C@@]4(CCCc5ccc(Cl)cc5)CC[C@@H]1[C@@]23OO4	28	13
C[C@@H]1CC[C@H]2CCO[C@@H]3O[C@@]4(CCCCc5ccccc5)CC[C@@H]1[C@@]23OO4	380	336
CC(C)C[C@@]12CC[C@H]3[C@H](C)CC[C@H]4CCO[C@H](O1)[C@]43OO2	250	183
C[C@@H]1CC[C@H]2CCO[C@@H]3O[C@@]4(C)CC[C@@H]1[C@@]23OO4	190	237
